According to patent US6998397B2, “Method for decreasing cholesterol level in blood” (Drebsk Comptech, Inc., priority 2004, dated 2006):

Experiments:
[1] = tested on: White rats fed with a standard food and drink diet; test: Total blood serum cholesterol in rats on normal diet, 36-week intragastrular administration; format: in vivo, rat; details: 36 weeks
Experimental: White rats (mails) were fed with a standard food and drink diet. Experimental and control groups (7 animals in each) were formed by randomization using body mass as the principal feature. EBI was administered to the experimental animals intragastrularly as a water solution during 36 weeks. The control group received an equivalent amount of placebo. At the end of each experiment, animals were decapitated under light ether narcosis 18 hours after food withdrawal. Total cholesterol in blood serum was measured enzymatically.

[2] = tested on: rats fed with high-cholesterol diet; test: Lipid metabolism and redox-vitamins in blood serum of rats under high-cholesterol diet, four-week administration; format: in vivo, rat; details: 4 weeks; for HDL / LDL / VLDL: blood serum lipoprotein fraction; for HDL / LDL / VLDL / Total cholesterol / Triglycerids / Vitamin A / Vitamin E: high-cholesterol diet; for Total cholesterol / Triglycerids / Vitamin A / Vitamin E: blood serum
Experimental: Forty white rats (mails) were divided for four groups (ten in each) by randomization using body mass as the principal feature. One group (control) was fed with a normal diet, and three others were fed with a high-cholesterol diet. The latter once received three times per week special food with the following additives: cholesterol (500 mg/kg), vitamin D3 (10000 ME/kg) and pork fat (1000 mg/kg). As a drink, these animals daily received a mixture (1:1) of glucose (5% water solution) and sodium chloride (2.5% water solution). Two groups of animals fed with the high-cholesterol diet received daily a water solution of EBI intragastrularly, and the control group received an equivalent amount of placebo. At the end of each experiment, animals were decapitated under light ether narcosis 18 hours after food withdrawal. Total cholesterol and triglycerides in blood serum were measured enzymatically. Lipoproteins were divided by electrophoresis in agar gel, then dyed with lipid-specific stuff and measured by a direct densitometry. Vitamins A and E were measured by fluorimetric analysis.

[3] = tested on: Volunteers with a high level of cholesterol; test: Total cholesterol in volunteers with high cholesterol after four-week administration; format: in vivo, human
Experimental: Volunteers with a high level of cholesterol were selected for clinical study. During the experiment, each patient had their normal personal diet without any special limitations (fats, high-cholesterol food, etc.). All the patients received daily EBI (2.5 mcg) dissolved in ethanol (0.03 ml) and mixed with water (50 ml). Administering the EBI was not adjusted with the meal-receiving time.

Solubility in water = format: physicochemical
Description: Compositions useful for administration of EBI can be easily prepared. The simplest way is the use of water-based solutions. […] Preferable concentrations are laying in the range of 10^−5–10^−6% that corresponds to 0.1–0.01 mcg/ml. […] Other drinkable or eatable forms and non-aqueous carriers may also be used.

mice = details: acute toxicity; cited from earlier work
rats = details: acute toxicity; cited from earlier work
[4] = prolonged and chronic experiments; cited from earlier work
[5] = 2 mcg/kg daily, listed as 24-epibrassinolide
[6] = 20 mcg/kg daily, listed as 24-epibrassinolide

CC(C)[C@@H](C)[C@@H](O)[C@H](O)[C@@H](C)[C@H]1CC[C@H]2[C@@H]3COC(=O)[C@H]4C[C@H](O)[C@H](O)C[C@]4(C)[C@H]3CC[C@]12C [EBI, 24-epibrassinolide]
total blood serum cholesterol ([1]; 0.2 mcg/kg intragastrular): 62.17 ± 5.54 mg/deciliter | total blood serum cholesterol, percentage change vs control ([1]; 0.2 mcg/kg intragastrular): −9% | total blood serum cholesterol ([1]; 2 mcg/kg intragastrular): 57.81 ± 6.34 mg/deciliter | total blood serum cholesterol, percentage change vs control ([1]; 2 mcg/kg intragastrular): −15% | total blood serum cholesterol ([1]; 20 mcg/kg intragastrular): 54.25 ± 3.17 mg/deciliter | total blood serum cholesterol, percentage change vs control ([1]; 20 mcg/kg intragastrular): (−20%) | total blood serum cholesterol ([1]; 200 mcg/kg intragastrular): 51.08 ± 5.15 mg/deciliter | total blood serum cholesterol, percentage change vs control ([1]; 200 mcg/kg intragastrular): (−25%) | lower cholesterol (lowering depending on dose) ([1]; normal cholesterol): 9–25% | HDL, percentage related to the high-cholesterol diet ([2]; 2 mcg/kg daily): −1% | LDL, percentage related to the high-cholesterol diet ([2]; 2 mcg/kg daily): 0% | Total cholesterol, percentage related to the high-cholesterol diet ([2]; 2 mcg/kg daily): (−34%) | Triglycerids, percentage related to the high-cholesterol diet ([2]; 2 mcg/kg daily): −58% | VLDL, percentage related to the high-cholesterol diet ([2]; 2 mcg/kg daily): +9% | Vitamin A, percentage related to the high-cholesterol diet ([2]; 2 mcg/kg daily): 16% | Vitamin E, percentage related to the high-cholesterol diet ([2]; 2 mcg/kg daily): 53% | reduction of plasma concentration of total cholesterol vs high-cholesterol diet without EBI ([2]; 2 mcg/kg daily): 34% | reduction of plasma concentration of triglycerides vs high-cholesterol diet without EBI ([2]; 2 mcg/kg daily): 58% | Vitamin A, percentage related to the high-cholesterol diet [2, 5]: +16% | Vitamin E, percentage related to the high-cholesterol diet [2, 5]: (+53%) | HDL, percentage related to the high-cholesterol diet ([2]; 20 mcg/kg daily): 47% | LDL, percentage related to the high-cholesterol diet ([2]; 20 mcg/kg daily): (−11%) | Total cholesterol, percentage related to the high-cholesterol diet ([2]; 20 mcg/kg daily): (−44%) | Triglycerids, percentage related to the high-cholesterol diet ([2]; 20 mcg/kg daily): −68% | VLDL, percentage related to the high-cholesterol diet ([2]; 20 mcg/kg daily): −11% | Vitamin A, percentage related to the high-cholesterol diet ([2]; 20 mcg/kg daily): 30% | Vitamin E, percentage related to the high-cholesterol diet ([2]; 20 mcg/kg daily): 51% | reduction of low-density lipoprotein vs high-cholesterol diet only ([2]; 20 mcg/kg daily): 11% | reduction of plasma concentration of total cholesterol vs high-cholesterol diet only ([2]; 20 mcg/kg daily): 44% | reduction of plasma concentration of triglycerides vs high-cholesterol diet only ([2]; 20 mcg/kg daily): 68% | HDL, percentage related to the high-cholesterol diet [2, 6]: (+47%) | Vitamin A, percentage related to the high-cholesterol diet [2, 6]: (+30%) | Vitamin E, percentage related to the high-cholesterol diet [2, 6]: (+51%) | decrease of VLDL level ([2]; 20 mcg/kg): 11% | HDL ([2]; 2 mcg/kg daily): 19.45 ± 1.14% | LDL ([2]; 2 mcg/kg daily): 75.24 ± 1.23% | VLDL ([2]; 2 mcg/kg daily): 5.31 ± 0.24% | HDL ([2]; 20 mcg/kg daily): 28.72 ± 1.22 % | LDL ([2]; 20 mcg/kg daily): 66.97 ± 1.23 % | VLDL ([2]; 20 mcg/kg daily): 4.33 ± 0.45% | Total cholesterol ([2]; 2 mcg/kg daily): 64.94 ± 5.15 mg/deciliter | Triglycerids ([2]; 2 mcg/kg daily): 0.80 ± 0.09 mmol/L | Vitamin A ([2]; 2 mcg/kg daily): 0.26 ± 0.02 mmol/L | Vitamin E ([2]; 2 mcg/kg daily): 1.90 ± 0.14 mmol/L | Total cholesterol ([2]; 20 mcg/kg daily): 55.04 ± 4.36 mg/deciliter | Triglycerids ([2]; 20 mcg/kg daily): 0.60 ± 0.04 mmol/L | Vitamin A ([2]; 20 mcg/kg daily): 0.29 ± 0.01 mmol/L | Vitamin E ([2]; 20 mcg/kg daily): 1.88 ± 0.10 mmol/L | decrease of total cholesterol ([2]; doses of 2 and 20 mcg/kg): 34–44% | decrease of triglycerides ([2]; doses of 2 and 20 mcg/kg): 58–68% | plasma total cholesterol lower than the starting level, on average ([3]; 6 volunteers with hypercholesterolemia, 2.5 mcg daily, 4 weeks): 38% | Total Cholesterol in Plasma (after 4 weeks) ([3]; humans, 2.5 mcg daily oral, start 287.1 ± 38.8): 177.8 ± 12.3 mg/deciliter | Percentage Change in Cholesterol ([3]; humans, 2.5 mcg daily, 4 weeks, vs start): −38% | solubility in water (Solubility in water): relatively small | LD50 (mice): more than 1000 mg/kg | LD50 (rats): more than 2000 mg/kg | postponed negative effects [4]: no postponed negative effects
